Results from patent US8247211B2, “Glycopeptide antibiotics” (American Cyanamid Company, priority 2001, dated 2012).

Assays:
Assay in all cases: In vitro antibacterial evaluation: minimum inhibitory concentration (MIC), broth dilution method
Format in all cases: cell-based
Settings in all cases: 18 hours at 35° C.
Enterococcus sp. = system: Enterococcus sp.
Method: (§1) The minimum inhibitory concentration (MIC), the lowest concentration of the antibiotic which inhibits growth of the test organism, is determined by the broth dilution method using Muller-Hinton II […] (Baltimore Biological Laboratories) following the recommendations of the National Committee for Clinical Laboratory Standards [Methods for dilution antimicrobial susceptibility tests for bacteria that grow aerobically, approved standard M7-A2, National Committee for Clinical Laboratory Standards, Villanova, Pa].
(§2) An inoculum level of 5×10^5 CFU/mL, and a range of antibiotic concentrations (64-0.06 μg/mL) is used. […] The test organisms include a spectrum of Gram-positive bacteria comprised of Staphylococcus sp., Streptococcus sp. and Enterococcus sp. These organisms include recent clinical isolates that are resistant to methicillin, penicillin and/or vancomycin.

Streptococcus sp. = system: Streptococcus sp.
Method: as §1, §2

Escherichia coli = system: Escherichia coli
Method: as §1, §2

Staphylococcus sp. = system: Staphylococcus sp.
Method: as §1, §2

Substance: β-O-[(Heptylamino)carbonyl]-cyclo[glycyl-β-methylphenylalanyl-O-(4-O-hexopyranosylhexopyranosyl)tyrosyl-3-(2-iminoimidazolidin-4-yl)seryl-3-(3-hexopyranosyl-2-iminoimidazolidin-4-yl)serylseryl] [Example 253a]
- MIC Enterococcus avium (GC 4558) (Enterococcus sp.; Enterococcus avium (GC 4558)): 16 µg/mL
- MIC Enterococcus faecalis (ATCC 29212) (Enterococcus sp.; Enterococcus faecalis (ATCC 29212)): 16 µg/mL
- MIC Enterococcus faecalis (GC 2242) (Enterococcus sp.; Enterococcus faecalis (GC 2242)): 16 µg/mL
- MIC Enterococcus faecalis (GC 2691) (Enterococcus sp.; Enterococcus faecalis (GC 2691)): 16 µg/mL
- MIC Enterococcus faecalis (GC 3059) (Enterococcus sp.; Enterococcus faecalis (GC 3059)): 32 µg/mL
- MIC Enterococcus faecalis (GC 4552) (Enterococcus sp.; Enterococcus faecalis (GC 4552)): 32 µg/mL
- MIC Enterococcus faecalis (GC 4553) (Enterococcus sp.; Enterococcus faecalis (GC 4553)): 16 µg/mL
- MIC Enterococcus faecalis (GC 4554) (Enterococcus sp.; Enterococcus faecalis (GC 4554)): 32 µg/mL
- MIC Enterococcus faecalis (GC 6189) (Enterococcus sp.; Enterococcus faecalis (GC 6189)): 16 µg/mL
- MIC Enterococcus faecium (GC 2243) (Enterococcus sp.; Enterococcus faecium (GC 2243)): 16 µg/mL
- MIC Enterococcus faecium (GC 4556) (Enterococcus sp.; Enterococcus faecium (GC 4556)): 16 µg/mL
- MIC Enterococcus faecium (GC 4557) (Enterococcus sp.; Enterococcus faecium (GC 4557)): 4 µg/mL
- MIC Enterococcus faecalis (ATCC 29212) (Enterococcus sp.; broth dilution, strain ATCC 29212): 16 µg/mL
- MIC Enterococcus faecalis (GC 2242) (Enterococcus sp.; broth dilution, strain GC 2242): 16 µg/mL
- MIC Enterococcus faecium (GC 2243) (Enterococcus sp.; broth dilution, strain GC 2243): 16 µg/mL
- MIC Enterococcus faecalis (GC 2691) (Enterococcus sp.; broth dilution, strain GC 2691): 16 µg/mL
- MIC Enterococcus faecalis (GC 3059) (Enterococcus sp.; broth dilution, strain GC 3059): 32 µg/mL
- MIC Enterococcus faecalis (GC 4552) (Enterococcus sp.; broth dilution, strain GC 4552): 32 µg/mL
- MIC Enterococcus faecalis (GC 4553) (Enterococcus sp.; broth dilution, strain GC 4553): 16 µg/mL
- MIC Enterococcus faecalis (GC 4554) (Enterococcus sp.; broth dilution, strain GC 4554): 32 µg/mL
- MIC Enterococcus faecium (GC 4556) (Enterococcus sp.; broth dilution, strain GC 4556): 16 µg/mL
- MIC Enterococcus faecium (GC 4557) (Enterococcus sp.; broth dilution, strain GC 4557): 4 µg/mL
- MIC Enterococcus avium (GC 4558) (Enterococcus sp.; broth dilution, strain GC 4558): 16 µg/mL
- MIC Enterococcus faecalis (GC 6189) (Enterococcus sp.; broth dilution, strain GC 6189): 16 µg/mL
- MIC Streptococcus agalactiae (GC 4564) (Streptococcus sp.; Streptococcus agalactiae (GC 4564)): 1 µg/mL
- MIC Streptococcus pneumoniae (ATCC 6301) (Streptococcus sp.; Streptococcus pneumoniae (ATCC 6301)): 0.5 µg/mL
- MIC Streptococcus pneumoniae (GC 1894) (Streptococcus sp.; Streptococcus pneumoniae (GC 1894)): 0.25 µg/mL
- MIC Streptococcus pneumoniae (GC 4565) (Streptococcus sp.; Streptococcus pneumoniae (GC 4565)): 0.5 µg/mL
- MIC Streptococcus pyogenes (GC 4563) (Streptococcus sp.; Streptococcus pyogenes (GC 4563)): 1 µg/mL
- MIC Streptococcus pneumoniae (ATCC 6301) (Streptococcus sp.; broth dilution, strain ATCC 6301): 0.5 µg/mL
- MIC Streptococcus pneumoniae (GC 1894) (Streptococcus sp.; broth dilution, strain GC 1894): 0.25 µg/mL
- MIC Streptococcus pyogenes (GC 4563) (Streptococcus sp.; broth dilution, strain GC 4563): 1 µg/mL
- MIC Streptococcus agalactiae (GC 4564) (Streptococcus sp.; broth dilution, strain GC 4564): 1 µg/mL
- MIC Streptococcus pneumoniae (GC 4565) (Streptococcus sp.; broth dilution, strain GC 4565): 0.5 µg/mL
- MIC Escherichia coli (ATCC 25922) (Escherichia coli; Escherichia coli (ATCC 25922)): >64 µg/mL
- MIC Escherichia coli (GC 4559) (Escherichia coli; Escherichia coli (GC 4559)): >64 µg/mL
- MIC Escherichia coli (GC 4560) (Escherichia coli; Escherichia coli (GC 4560)): 2 µg/mL
- MIC Coagulase Negative Staphylococcus (GC 4547) (Staphylococcus sp.; Coagulase Negative Staphylococcus (GC 4547)): 4 µg/mL
- MIC Coagulase Negative Staphylococcus (GC 4548) (Staphylococcus sp.; Coagulase Negative Staphylococcus (GC 4548)): 4 µg/mL
- MIC Coagulase Negative Staphylococcus (GC 4549) (Staphylococcus sp.; Coagulase Negative Staphylococcus (GC 4549)): 1 µg/mL
- MIC Coagulase Negative Staphylococcus (GC 4551) (Staphylococcus sp.; Coagulase Negative Staphylococcus (GC 4551)): 8 µg/mL
- MIC Coagulase Negative Staphylococcus (GC 6257) (Staphylococcus sp.; Coagulase Negative Staphylococcus (GC 6257)): 1 µg/mL
- MIC Staphylococcus aureus (ATCC 29213) (Staphylococcus sp.; Staphylococcus aureus (ATCC 29213)): 4 µg/mL
- MIC Staphylococcus aureus (GC 1131) (Staphylococcus sp.; Staphylococcus aureus (GC 1131)): 4 µg/mL
- MIC Staphylococcus aureus (GC 3051) (Staphylococcus sp.; Staphylococcus aureus (GC 3051)): 2 µg/mL
- MIC Staphylococcus aureus (GC 3053) (Staphylococcus sp.; Staphylococcus aureus (GC 3053)): 4 µg/mL
- MIC Staphylococcus aureus (GC 4541) (Staphylococcus sp.; Staphylococcus aureus (GC 4541)): 4 µg/mL
- MIC Staphylococcus aureus (GC 4542) (Staphylococcus sp.; Staphylococcus aureus (GC 4542)): 4 µg/mL
- MIC Staphylococcus aureus (GC 4544) (Staphylococcus sp.; Staphylococcus aureus (GC 4544)): 4 µg/mL
- MIC Staphylococcus aureus (GC 4545) (Staphylococcus sp.; Staphylococcus aureus (GC 4545)): 2 µg/mL
- MIC Staphylococcus aureus-SMITH (GC 4543) (Staphylococcus sp.; Staphylococcus aureus-SMITH (GC 4543)): 2 µg/mL
- MIC Staphylococcus haemolyticus (GC 4546) (Staphylococcus sp.; Staphylococcus haemolyticus (GC 4546)): 4 µg/mL
- MIC Staphylococcus aureus (ATCC 29213) (Staphylococcus sp.; broth dilution, strain ATCC 29213): 4 µg/mL
- MIC Staphylococcus aureus (GC 1131) (Staphylococcus sp.; broth dilution, strain GC 1131): 4 µg/mL
- MIC Staphylococcus aureus (GC 3051) (Staphylococcus sp.; broth dilution, strain GC 3051): 2 µg/mL
- MIC Staphylococcus aureus (GC 3053) (Staphylococcus sp.; broth dilution, strain GC 3053): 4 µg/mL
- MIC Staphylococcus aureus (GC 4541) (Staphylococcus sp.; broth dilution, strain GC 4541): 4 µg/mL
- MIC Staphylococcus aureus (GC 4542) (Staphylococcus sp.; broth dilution, strain GC 4542): 4 µg/mL
- MIC Staphylococcus aureus-SMITH (GC 4543) (Staphylococcus sp.; broth dilution, strain GC 4543): 2 µg/mL
- MIC Staphylococcus aureus (GC 4544) (Staphylococcus sp.; broth dilution, strain GC 4544): 4 µg/mL
- MIC Staphylococcus aureus (GC 4545) (Staphylococcus sp.; broth dilution, strain GC 4545): 2 µg/mL
- MIC Staphylococcus haemolyticus (GC 4546) (Staphylococcus sp.; broth dilution, strain GC 4546): 4 µg/mL
- MIC Coagulase Negative Staphylococcus (GC 4547) (Staphylococcus sp.; broth dilution, strain GC 4547): 4 µg/mL
- MIC Coagulase Negative Staphylococcus (GC 4548) (Staphylococcus sp.; broth dilution, strain GC 4548): 4 µg/mL
- MIC Coagulase Negative Staphylococcus (GC 4549) (Staphylococcus sp.; broth dilution, strain GC 4549): 1 µg/mL
- MIC Coagulase Negative Staphylococcus (GC 4551) (Staphylococcus sp.; broth dilution, strain GC 4551): 8 µg/mL
- MIC Coagulase Negative Staphylococcus (GC 6257) (Staphylococcus sp.; broth dilution, strain GC 6257): 1 µg/mL
